Laboratory results reported in patent publication US10149817B2, “Topical skin treatment composition comprising dendranthema indicum extract” (AMOREPACIFIC CORPORATION, priority 2011, dated 2018).

Assays:
collagenase = test: Inhibition of collagenase expression in human fibroblasts; type: cell-based; settings: 10^−4 M test material, 24 hours, untreated group = 100
Protocol: The collagenase expression inhibitory activities of the Chrysanthemum indicum var. albescens extract prepared in Preparation Example 1 and the Chrysanthemum indicum extract prepared in Comparative Preparation Example 1 were measured comparatively with those of tocopherol and EGCG. Tocopherol and EGCG are antioxidant substances known to function to regenerate the epidermal cells of the skin to prevent the aging of the skin.
In the test, human fibroblasts were added to a 96-well microtiter plate containing 2.5% FBS-containing DMEM (Dulbecco's Modified Eagle's Media) medium at a density of 5,000 cells/well and were cultured to a confluence of about 90%. […]
The production of collagenase in the harvested cell cultures was measured using a commercially available collagenase measuring device (Amersham Pharmacia, USA). […]
The absorbance of the 96-well plate having a yellow color was measured at 405 nm using a spectrophotometer, and the degree of synthesis of collagenase was calculated using the following Equation 1. Herein, the absorbance of the cell culture broth harvested from the group not treated with the test material was used as a control. That is, the expression level of collagenase in the untreated group was set as 100, and the expression level of collagenase in the group treated with the test material was calculated relative to the untreated group. […]

[1] = system: C57BL/6 mouse melanocytes (Mel-Ab cells); test: Melanin production inhibitory effect using mouse melanocytes; type: cell-based; settings: 25 ppm test material, three consecutive days, absorbance at 400 nm
Protocol: The melanin production inhibitory activities of the Chrysanthemum indicum var. albescens extract prepared in Preparation Example 1 and the Chrysanthemum indicum extract prepared in Comparative Preparation Example 1 were measured comparatively with those of the known whitening substance hydroquinone.
C57BL/6 mouse melanocytes (Mel-Ab cells) (Dooley, T. P. et al, Skin pharmacol, 7, pp 188-200) were cultured in DMEM, containing 10% fetal bovine serum, 100 nM 12-O-tetradecanoylphorbol-13-acetate and 1 nM cholera toxin, under the conditions of 37° C. and 5% CO2. The cultured Mel-Ab cells were detached with 0.25% trypsin-EDTA and cultured in a 24-well plate at a concentration of […]. Then, during three consecutive days from 2 days of culture, each of the test materials was added thereto and cultured. As the test materials, 25 ppm of each of the Chrysanthemum indicum var. albescens extract of Preparation Example 1, the Chrysanthemum indicum extract of Comparative Preparation Example 1, and hydroquinone were used. Herein, the hydroquinone was used as a positive control. […] The lysed cells were measured for absorbance at 400 nm, and based on the measured absorbance, the percent inhibition of melanin production was calculated according to the following equation 2. Percent inhibition of melanin production=100−(absorbance of test material/absorbance of control×100) Equation 2

[2] = system: skin of panels sensitive to irritation; test: Irritation test (stinging, burning) in panels sensitive to irritation; type: in vivo; settings: 0.5 mL applied to skin, 15 panels
Protocol: In order to compare the sensory feeling of the Chrysanthemum indicum var. albescens extract of the present invention with that of the known whitening substance kojic acid, 15 panels sensitive to irritation, such as stinging, burning, etc., were subjected to a test for determining irritation, such as stinging, burning, etc.
Each test panel was allowed to apply 0.5 mL of each of kojic acid (available from YM Chemical Co.) and the Chrysanthemum indicum var. albescens extract to his/her skin randomly at the left side or right side, and then evaluate the test sample by grading from 0 to 3.0 at an interval of 0.1.
0.5-1.0: slight irritation;
1.1-2.0: mild irritation;
2.1-3.0: severe irritation.

[3] = grade 0 to 3.0 at interval of 0.1

## O=C(O[C@@H]1Cc2c(O)cc(O)cc2O[C@@H]1c1cc(O)c(O)c(O)c1)c1cc(O)c(O)c(O)c1 [EGCG]
collagenase
  Collagenase expression level (%): 69%

## Oc1ccc(O)cc1 [Hydroquinone, hydroquinone]
[1]
  inhibition at 25 ppm: 48.2%

## O=c1cc(CO)occ1O [Kojic acid, kojic acid]
[2]
  Irritation with respect to stinging and burning (in words): slight stinging and burning
[2]; grade 0 to 3.0
  Average (irritation grade of stinging and burning): 0.67
[2]; [3]
  Burning (irritation grade 0 to 3.0): 0.43
  Stinging (irritation grade 0 to 3.0): 0.91

## tocopherol
collagenase
  Collagenase expression level (%): 76%
